Columns and labels:
Assay type in all cases: binding, BALB/c mice
[1] = tested on: anti-carbaryl monoclonal antibody; test: competitive FPIA carbaryl standard curve in borate buffer solution; settings: 10% methanol, 10 min
Procedure: Step 2: First, the working concentration of each fluorescent marker was set to a corresponding fluorescent marker concentration (5 nM) when the fluorescence intensity was 10 times of the background fluorescence intensity of the BB solution (borate buffer solution). With a corresponding antibody dilution factor when 70% of the anti-carbaryl monoclonal antibody binds to the fluorescent marker (1 μg/mL), the carbaryl detection standard curve of different markers was established and the IC50 was calculated. The optimum fluorescent marker was decided based on the IC50 value of each standard curve. […]
9 concentration gradients of carbaryl standards of 100 μg/mL, 10 μg/mL, 1 μg/mL, 0.5 μg/mL, 0.1 μg/mL, 0.05 μg/mL, 0.01 μg/mL, 0.005 μg/mL and 0.001 μg/mL were formulated with 10% methanol in a borate buffer solution, and each 50 μL of the carbaryl standards, 500 μL fluorescent marker of working concentration (5 nM), and 500 μL anti-carbaryl monoclonal antibody of the working concentration (1 μg/mL) were added to a reaction tube, and incubated at room temperature in the dark for 10 min. Then the fluorescence polarization value was measured at an excitation wavelength of 485 nm and an emission wavelength of 530 nm, with a cutoff of 515 nm. […]

[2] = tested on: anti-carbaryl monoclonal antibody; test: competitive FPIA carbaryl standard curve in strawberry sample matrix; settings: 25° C., 5 min
Procedure: Step 1: 20.0 g of the blank strawberry sample (which was determined to be carbaryl free by LC) was weighed and added to 20.0 mL acetonitrile, homogenized for 2 min at a high speed, filtered into a 50 mL centrifuge tube containing 4 g of sodium chloride, shaken vigorously for 3 min, and centrifuged at 5000 g for 2 min. 10 mL of the supernatant extract was aspirated to a beaker, heated in a water bath at 80° C., and evaporated to almost dryness while nitrogen was introduced into the beaker. 10 mL of methanol was added to dissolve the sample residue, to obtain a sample matrix solution. 9 concentration gradients of carbaryl standards of 100 μg/mL, 10 μg/mL, 1μg/mL, 0.5 μg/mL, 0.1 μg/mL, 0.05 μg/mL, 0.01 μg/mL, 0.005 μg/mL and 0.001 μg/mL were formulated with the sample matrix solution. Each 50 μL of the carbaryl standard solution in the sample matrix solution, 500 μL fluorescent marker solution and 500 μL anti-carbaryl monoclonal antibody solution were added and incubated at 25° C. for 5 min. Then FPIA detection was conducted. According to the correlation between the fluorescence polarization signal and the concentration of the carbaryl standard, a standard curve for carbaryl detection in the strawberry sample was obtained, as shown in FIG. 2. The detection sensitivity of carbaryl in the strawberry matrix is 108.6 μg/kg and the detection range is 32.4-363.6 μg/kg. […]

[3] = tested on: anti-carbaryl monoclonal antibody secreted by the hybridoma cell line Jnw1D2; test: indirect competitive ELISA characterisation of the anti-carbaryl monoclonal antibody (IC50, cross reaction); settings: with anti-carbaryl monoclonal antibody
Text: 2-3 weeks after cell fusion, when the cell colonies grew up to be visually visible, the clones were picked out from the culture medium with a micropipette, transferred to a 96-well cell culture plate and cultured in HAT liquid. When the cells grew to cover ⅔ of the bottom of the well, the culture supernatant was aspirated for testing. A two-step screening method was adopted. In the first step, indirect ELISA method was used to screen out the positive wells against carbaryl, but not the carrier protein BSA. In the second step, indirect competitive ELISA method was used for testing the positive wells screened out in the first step with carbaryl as a competitor. Wells with high absorbance and sensitivity were chosen (where the high absorbance means a high final value determined in the well where the competitor is 0, i.e., the positive control well, and the high sensitivity means a low concentration, i.e. the IC50, of the competitor achieving 50% inhibition). The cells were subcloned by limiting dilution analysis, and then detected by the two-step method as described above. After 4-5 rounds of repeated subcloning, a hybridoma cell line Jnw1D2 was obtained, which was deposited in China Center for Type Culture Collection (CCTCC) (Wuhan University, Wuhan, China) under the CCTCC Accession No: C201654.
The subtype of the anti-carbaryl monoclonal antibody secreted by the hybridoma cell line Jnw1D2 was identified as IgG2b by using a commercial subtype identification kit. The titer of the antibody was 1.6×10^4 measured by enzyme-linked immunosorbent assay (ELISA).

Compound: CNC(=O)Oc1cccc2ccccc12 [carbaryl]
- sensitivity of the standard curve [1]: 82.3 ng/mL
- detection sensitivity [2]: 108.6 µg/kg

Compound: CNC(=O)O/N=C/C(C)(C)SC [aldicarb]
- cross reaction [3]: no cross reaction

Compound: CNC(=O)Oc1cccc2c1OC(C)(C)C2 [carbofuran]
- cross reaction [3]: no cross reaction

Compound: CNC(=O)ON=C(C)SC [methomyl]
- cross reaction [3]: no cross reaction

Reference: patent US20180209966A1, “FLUORESCENCE POLARIZATION IMMUNOASSAY METHOD FOR DETECTING CARBARYL” (priority 2017, published 2018)
